Test results taken from patent US12703693B2, “Crystalline forms of N-{3-[(1S)-1-{[6-(3,4-dimethoxyphenyl)pyrazin-2-yl]amino}ethyl]phenyl}-5-methylpyridine-3-carboxamide and related products and methods” (GB002, INC., priority 2021, dated 2026).
In brackets after ≈: the same amount, converted by molar mass.

Columns and labels:
[1] = Particle size distribution (PSD) of micronized / spray dried material; format: physicochemical; conditions: for Dv10 (μm) 1 / Dv50 (μm) 1 / Dv90 (μm) 1 / SPAN1 / Dv10 (μm) 2 / Dv50 (μm) 2 / Dv90 (μm) 2 / SPAN 2: wet polished (wet milled + spray dried) Compound 1 Form A; for Dv10 (μm) 1 / Dv50 (μm) 1 / Dv90 (μm) 1 / SPAN1: PSD set 1; for Dv10 (μm) 2 / Dv50 (μm) 2 / Dv90 (μm) 2 / SPAN 2: PSD set 2
Source text: Crystalline Compound 1 Form A was fed into a grinding chamber tangentially by vacuum created by the venturi system using pressurized nitrogen (venturi pressure, Pvent, above grind pressure, Pgrind). Compressed nitrogen was also used for the jet nozzles in the walls of the chamber. The feed flow rate was set and controlled automatically (by a gravimetric feeder) or manually. Once inside the milling chamber particles were accelerated by a series of perimeter jets, in a spiral movement. The compressed fluid issuing from the nozzles expands from Pgrind and imparts very high rotational speeds in the chamber. The micronizing effect occurs when the slower incoming particles and the faster particles in the spiral path collide. While centrifugal force retains the larger particles at the periphery of the milling chamber, the smaller particles exit with the exhaust gas from the center of the chamber. Five 20 g trials were performed in a 1.5″ jet mill, under varying feed rates (Ffeed,JM,) and pressures; the optimal conditions were used for a sixth larger scale 50 g trial.
Aqueous suspensions of crystalline Compound 1 Form A in water (5% w/w or 10% w/w) were processed via microfluidization with a HPH18 (M-110EH-30 Microfluidics Pilot) wet milling apparatus equipped with an auxiliary processing module (200 μm) and an interaction chamber (Z-shape, 100 μm). The unit was initiated at a given pressure for the first five cycles to perform a pre-milling of the suspension, using only the auxiliary processing module (200 μm). The interaction chamber (100 μm) was then introduced and the suspension processed at a defined pressure. The temperature was controlled, using a reactor jacket, and recorded. To address clogging of the micronization chambers (observed after ~25 cycles), the pressure was increased from 25 to 60 bar.
The material isolated from the first run 1A, was dived into three (1BI, 1BII and 1BIII); runs 2A and 3A were spray dried to produce samples 2B and 3B, respectively. […] Runs 2B and 3B were additionally characterized for specific surface area (SSA). See Table 27 (runs 1BI, 1BII and 1BIII) and Table 28 (runs 2B and 3B) for conditions and product characterization. […]
Two 250 g batches of crystalline Compound 1 Form A were each suspended in water (5 L) and wet polished in a wet milling HPH18 (M-110EH-30 Microfluidics Pilot) apparatus, equipped with an auxiliary processing module (200 μm) and an interaction chamber (Z-shape, 100 μm). The unit was initiated at 50 bar for the first five cycles to perform a pre-milling of the suspension, using only the auxiliary processing module (200 μm). The interaction chamber (100 μm) was then introduced and the suspension processed at 50 bar (increased to 60 or 70 bar if the system clogged). The temperature was maintained at 18-28° C. using a reactor jacket. The Reactor agitation speed was 280 RPM (batch 1) and 390 RPM (batch 2). The first batch was micronized for 25 cycles and particle size distribution analyzed after 5, 15 and 20 cycles; the second batch was micronized for […] and particle size distribution analyzed after 15, 20, 25 and 35 cycles.
Both batches were then spray dried (separately) using a Büchi spray dryer, using an open loop system. The unit was equipped with a two-fluid nozzle: cap and orifice diameters of 1.5 and 0.7 mm, respectively operated with nitrogen. The aspirator, blowing nitrogen, was set at 100% capacity (~40 kg/h). The suspension feed flow was set to 8 ml/min, high and the drying outlet temperature to 75±1° C. […] Total yield (both batches combined) was 267 g (53%).
Two 250 g batches (250 g and 238 g; 488 g total) of crystalline Compound 1 Form A coated with ~2% L-leucine were each suspended in water (5 L) and wet polished in a wet milling HPH18 (M-110EH-30 Microfluidics Pilot) apparatus, under the same process as described in the previous example. The first batch was micronized for 25 cycles and the second for 30 cycles. […]

[2] = Product characterization of micronized / spray dried powder (XRPD, amorphous content, water content by KF, assay and related substances, SSA); format: physicochemical; conditions: wet polished (wet milled + spray dried) Compound 1 Form A; for KF: water content
Source text: The final spray dried product was characterized for assay and related substances, PSD, water content by KF and XRPD and the results shown in Table 43. The two sub-batches were blended to obtain the final product, with a total final yield was 137 g (68%), see Table 44.

[3] = Solubility in ethanol/water mixtures; conditions: 22 °C, aqueous with cosolvent or surfactant or cyclodextrin, thermodynamic from solid
Protocol: Phosphate Buffer contained NaH2PO4·H2O (0.345 g), sodium hydroxide aqueous solution (0.2M, 10.001 mL), sodium chloride (0.576 g) and water (qs ad 100.0 mL); • Ethanol/Water (30/70) contained Ethanol (30.0 g) and Water (70.0 g); • Ethanol/Water (40/60) contained Ethanol (40.0 g) and Water (60.0 g); • Ethanol/Water (50/50) contained Ethanol (50.0 g) and Water (50.0 g); and • Ethanol/Water (45/55) contained Ethanol (4.50 g) and Water (5.51 g).

[4] = Compound 1 alone after wet milling, BATCH 01: 20 cycles/P = 50 bar, BATCH 02: 35 cycles/P = 70 bar
[5] = wet milled aqueous suspension of Compound 1 Form A, cycles/pressure: 1A 30/60 bar, 2A 45/50 bar, 3A 30/50 bar

Row | SMILES | Dv10 (μm) 1 [1] [μm] | Dv50 (μm) 1 [1] [μm] | Dv90 (μm) 1 [1] [μm] | SPAN1 [1] | Dv10 (μm) 2 [1] [μm] | Dv50 (μm) 2 [1] [μm] | Dv90 (μm) 2 [1] [μm] | SPAN 2 [1] | KF [2] [% w/w] | Amorphous content [2] [% w/w] | Assay [2] [% LC] | Impurities [2] [% area] | XRPD [2] | Dv10 [1, 5] [μm] | Dv50 [1, 5] [μm] | Dv90 [1, 5] [μm] | further results
1 | COc1ccc(-c2cncc(N[C@@H](C)c3cccc(NC(=O)c4cncc(C)c4)c3)n2)cc1OC [BATCH 01] |  |  |  |  |  |  |  |  |  |  |  |  |  |  |  |  | Dv10 [1, 4]: 0.2 μm; Dv50 [1, 4]: 0.5 μm; Dv90 [1, 4]: 1.7 μm
2 | COc1ccc(-c2cncc(N[C@@H](C)c3cccc(NC(=O)c4cncc(C)c4)c3)n2)cc1OC [BATCH 02] |  |  |  |  |  |  |  |  |  |  |  |  |  |  |  |  | Dv10 [1, 4]: 0.3 μm; Dv50 [1, 4]: 0.8 μm; Dv90 [1, 4]: 3.4 μm
3 | COc1ccc(-c2cncc(N[C@@H](C)c3cccc(NC(=O)c4cncc(C)c4)c3)n2)cc1OC [Compound 1BIII] | 1.7 | 3.4 | 6.6 | 1.4 | 1.4 | 3.1 | 6.6 | 1.7 | 0.1 | <10 | 99.40 | 1.10 | Crystalline |  |  |  | 
4 | COc1ccc(-c2cncc(N[C@@H](C)c3cccc(NC(=O)c4cncc(C)c4)c3)n2)cc1OC [Compound 1BII] | 1.7 | 3.3 | 6.3 | 1.4 | 1.3 | 3 | 6.1 | 1.6 | 0.2 | <10 | 102.0 | 0.9 | Crystalline |  |  |  | 
5 | COc1ccc(-c2cncc(N[C@@H](C)c3cccc(NC(=O)c4cncc(C)c4)c3)n2)cc1OC [Compound 1BI] | 1.8 | 3.5 | 6.6 | 1.4 | 1.5 | 3.3 | 6.7 | 1.6 | 0.5 | <10 | 98.9 | 1.1 | Crystalline |  |  |  | 
6 | COc1ccc(-c2cncc(N[C@@H](C)c3cccc(NC(=O)c4cncc(C)c4)c3)n2)cc1OC [Compound 3B-2F] |  |  |  |  | 1.3 | 3.7 | 14.7 | 3.6 |  |  |  |  |  |  |  |  | 
7 | CC(C)C[C@H](N)C(=O)O [L-Leucine] |  |  |  |  |  |  |  |  |  |  |  |  |  |  |  |  | solubility ([3]; ethanol/water 30:70 (w:w)): 7360 µg/mL (≈ 56.1 mM); solubility at 4 h ([3]; ethanol/water 30:70 (w:w)): 7470 µg/mL (≈ 56.9 mM); solubility at 24 h ([3]; ethanol/water 30:70 (w:w)): 7260 µg/mL (≈ 55.3 mM); solubility ([3]; ethanol/water 40:60 (w:w)): 5880 µg/mL (≈ 44.8 mM); solubility at 4 h ([3]; ethanol/water 40:60 (w:w)): 6040 µg/mL (≈ 46 mM); solubility at 24 h ([3]; ethanol/water 40:60 (w:w)): 5710 µg/mL (≈ 43.5 mM); solubility ([3]; ethanol/water 50:50 (w:w)): 5070 µg/mL (≈ 38.7 mM); solubility at 4 h ([3]; ethanol/water 50:50 (w:w)): 4720 µg/mL (≈ 36 mM); solubility at 24 h ([3]; ethanol/water 50:50 (w:w)): 5410 µg/mL (≈ 41.2 mM)
8 | COc1ccc(-c2cncc(N[C@@H](C)c3cccc(NC(=O)c4cncc(C)c4)c3)n2)cc1OC [Run 1A] |  |  |  |  |  |  |  |  |  |  |  |  |  | 1.7 | 3.2 | 6 | 
9 | COc1ccc(-c2cncc(N[C@@H](C)c3cccc(NC(=O)c4cncc(C)c4)c3)n2)cc1OC [Run 2A] |  |  |  |  |  |  |  |  |  |  |  |  |  | 1.3 | 2.7 | 4.8 | 
10 | COc1ccc(-c2cncc(N[C@@H](C)c3cccc(NC(=O)c4cncc(C)c4)c3)n2)cc1OC [Run 3A] |  |  |  |  |  |  |  |  |  |  |  |  |  | 0.1 | 1.0 | 3.5 | 
